# Measured values published in ChEMBL document CHEMBL4428084, “Discovery and Optimization of N-(4-(3-Aminophenyl)thiazol-2-yl)acetamide as a Novel Scaffold Active against Sensitive and Resistant Cancer Cells” (J Med Chem, 2016).
# Columns and labels:
# A-375 [1] = assay: Cytotoxicity against vemurafenib-sensitive human A375 cells assessed as cell viability at 10 uM after 48 hrs by trypan blue exclusion assay relative to control; assay type: functional; settings: A-375, 48 h, read-out: Activity
# MIA PaCa-2 = assay: Cytotoxicity against gemcitabine-resistant human MIAPaCa2 cells assessed as cell viability at 10 uM after 48 hrs by trypan blue exclusion assay relative to control; assay type: functional; settings: MIA PaCa-2, 48 h, read-out: Activity
# BXPC-3 = assay: Cytotoxicity against gemcitabine-sensitive human BxPC3 cells assessed as cell viability at 10 uM after 48 hrs by trypan blue exclusion assay relative to control; assay type: functional; settings: BXPC-3, 48 h, read-out: Activity
# [2] = Cytotoxicity against vemurafenib-resistant human A375 RIV cells assessed as cell viability at 10 uM after 48 hrs by trypan blue exclusion assay relative to control; assay type: functional; settings: A-375, 48 h, read-out: Activity
# [3] = Cytotoxicity against vemurafenib-resistant human A375 R5C3 cells assessed as cell viability at 10 uM after 48 hrs by trypan blue exclusion assay relative to control; assay type: functional; settings: A-375, 48 h, read-out: Activity
# K562 [4] = assay: Cytotoxicity against imatinib-resistant human K562 cells assessed as cell viability at 10 uM after 48 hrs by trypan blue exclusion assay relative to control; assay type: functional; settings: K562, 48 h, read-out: Activity
# K562 [5] = assay: Cytotoxicity against imatinib-sensitive human K562 cells assessed as cell viability at 10 uM after 48 hrs by trypan blue exclusion assay relative to control; assay type: functional; settings: K562, 48 h, read-out: Activity
# [6] = Cytotoxicity against vemurafenib-resistant human A375 R5C3 cells assessed as cell viability at 5 uM after 48 hrs by trypan blue exclusion assay relative to control; assay type: functional; settings: A-375, 48 h, read-out: Activity
# [7] = Cytotoxicity against vemurafenib-resistant human A375 RIV cells assessed as cell viability at 5 uM after 48 hrs by trypan blue exclusion assay relative to control; assay type: functional; settings: A-375, 48 h, read-out: Activity
# A-375 [8] = assay: Cytotoxicity against vemurafenib-sensitive human A375 cells assessed as cell viability at 5 uM after 48 hrs by trypan blue exclusion assay relative to control; assay type: functional; settings: A-375, 48 h, read-out: Activity
# A-375 [9] = assay: Induction of apoptosis in human A375 cells assessed as cells with active caspase-3 at 1 uM after 12 hrs by flow cytometry (reference value: 4.16%); assay type: functional
# K562 [10] = assay: Cytotoxicity against imatinib-resistant human K562 cells assessed as cell viability at 1 uM after 48 hrs by trypan blue exclusion assay relative to control; settings: K562, 48 h, read-out: Activity
# K562 [11] = assay: Cytotoxicity against imatinib-sensitive human K562 cells assessed as cell viability at 1 uM after 48 hrs by trypan blue exclusion assay relative to control; settings: K562, 48 h, read-out: Activity
structure (smiles),measurement,setting,value
CC(=O)Nc1nc(-c2cccc(NS(=O)(=O)c3c[nH]cn3)c2)cs1,viability at 10 µM,A-375 [1],45.7%
CC(=O)Nc1nc(-c2cccc(NS(=O)(=O)c3cccs3)c2)cs1,viability at 10 µM,A-375 [1],29.6%
CC(=O)Nc1nc(-c2cccc(N)c2)cs1,viability at 10 µM,A-375 [1],38.4%
CC(=O)Nc1nc(-c2cccc([N+](=O)[O-])c2)cs1,viability at 10 µM,A-375 [1],47.3%
CCCCc1ccc(S(=O)(=O)Nc2cccc(-c3csc(NC(C)=O)n3)c2)cc1,viability at 10 µM,MIA PaCa-2,< 1%
same,viability at 10 µM,BXPC-3,4.3%
same,viability at 10 µM,[2],26.7%
same,viability at 10 µM,A-375 [1],2.2%
same,viability at 10 µM,[3],9.9%
same,viability at 10 µM,K562 [4],60.9%
same,viability at 10 µM,K562 [5],51.6%
CC(=O)Nc1nc(-c2cccc(NS(=O)(=O)c3ccccc3)c2)cs1,viability at 10 µM,A-375 [1],72.2%
CC(=O)Nc1nc(-c2cccc(NS(=O)(=O)c3sc(C)nc3C)c2)cs1,viability at 10 µM,A-375 [1],29.2%
CC(=O)Nc1nc(-c2cccc(NS(=O)(=O)c3ccc(C)cc3)c2)cs1,viability at 10 µM,MIA PaCa-2,49.1%
same,viability at 10 µM,BXPC-3,21.6%
same,viability at 10 µM,[2],53.3%
same,viability at 10 µM,A-375 [1],19.8%
same,viability at 10 µM,[3],75.9%
same,viability at 10 µM,K562 [4],38.5%
same,viability at 10 µM,K562 [5],15.3%
CCCS(=O)(=O)Nc1ccc(F)c(C(=O)c2c[nH]c3ncc(-c4ccc(Cl)cc4)cc23)c1F [VEMURAFENIB],viability at 5 µM,[6],101%
same,viability at 5 µM,[7],76.7%
same,viability at 5 µM,A-375 [8],44%
CN[C@@H]1C[C@H]2O[C@@](C)([C@@H]1OC)n1c3ccccc3c3c4c(c5c6ccccc6n2c5c31)C(=O)NC4 [STAUROSPORINE],Activity,A-375 [9],46.95%
Cc1ccc(NC(=O)c2ccc(CN3CCN(C)CC3)cc2)cc1Nc1nccc(-c2cccnc2)n1 [IMATINIB],viability at 1 µM,K562 [10],85.5%
same,viability at 1 µM,K562 [11],9.7%
CCCCC#Cc1ccc(S(=O)(=O)Nc2cccc(-c3csc(NC(C)=O)n3)c2)cc1,viability at 10 µM,MIA PaCa-2,< 1%
same,viability at 10 µM,BXPC-3,< 1%
same,viability at 10 µM,[2],10%
same,viability at 10 µM,A-375 [1],< 1%
same,viability at 10 µM,[3],7.8%
same,viability at 10 µM,K562 [4],35.1%
same,viability at 10 µM,K562 [5],26.9%
CC(=O)Nc1nc(-c2cccc(NS(=O)(=O)c3cc4ccccc4s3)c2)cs1,viability at 10 µM,A-375 [1],29.2%
CC(=O)Nc1nc(-c2cccc(NS(=O)(=O)c3ccc(-c4ccccc4)cc3)c2)cs1,viability at 10 µM,A-375 [1],33.9%
CC(=O)Nc1nc(-c2cccc(NS(=O)(=O)c3cccc(C)c3)c2)cs1,viability at 10 µM,A-375 [1],51.2%
CC(=O)Nc1nc(-c2cccc(NC(=O)c3ccc4ccccc4c3)c2)cs1,viability at 10 µM,MIA PaCa-2,7%
same,viability at 10 µM,BXPC-3,1.5%
same,viability at 10 µM,[2],30%
same,viability at 10 µM,A-375 [1],18.3%
same,viability at 10 µM,[3],63.8%
same,viability at 10 µM,K562 [4],89.7%
same,viability at 10 µM,K562 [5],53.9%
CC(=O)Nc1nc(-c2cccc(NS(=O)(=O)c3ccc(C)s3)c2)cs1,viability at 10 µM,A-375 [1],37.5%
